Series [1] concerns dorsal skin of AD-induced BALB/c mice. Kind of series: DNCB-induced AD model, histological observations (H&E, toluidine blue). The note with it: versus AD mice; for decrease in both epidermal and dermal thickness: 200 μg/mL topical daily for 18 days, H&E staining; for infiltration of mast cells in the skin lesions: topical application, toluidine blue staining. The class given is in vivo. The protocol: (§1) As described in our previous article, the 7-week-old female BALB/c mice were divided into seven groups (n = 8 per group): Control (Con) group, TZP3 200 μg/mL (TZP3) group, and TZP5 200 μg/mL (TZP5) group, DNCB-sensitized only (AD) group, DNCB-sensitized + TZP3 200 μg/mL (AD + TZP3) group, DNCB-sensitized + TZP5 200 μg/mL (AD + TZP5) group, DNCB-sensitized + Dermatop (Sanofi, Korea) 0.25% (AD + Dermatop) group. Dermatop was used as a positive control treatment. For the first induction of AD in the BALB/c mice, the backs of the mice were shaved and challenged with 200 μL of 1% 2,4-dinitrochlorobenzene(DNCB) in acetone/olive oil (3:1) one time (day−4). After 4 days from the induction, 0.5% DNCB was painted onto the backs of the mice every two days (day 2, 4, 6, 8, 10, 12, 14, 16 and 18). Concentrations of 200 μg/mL TZP3 or TZP5 in 20 μL of PBS were applied to the dorsal skin once daily for 18 days.
As described in our previous article, the skin tissues of the mice were […] in 10% neutral buffered formalin (NBF) for 24 h and embedded in white paraffin. Serial paraffin‐sections with 5 µm thickness, were prepared and stained with hematoxylin-eosin (H&E) or toluidine blue. The thickness of the epidermis and dermis was measured under a microscope. The number of mast cells stained by toluidine blue in the upper dermis in a field of 0.25 mm × 0.25 mm (0.0625 mm^2) was counted under the microscope. The cells in five fields (0.3125 mm^2 in total) of the upper dermis were counted, and an estimate of the number of cells per 1 mm^2 was made for each mouse specimen.

Series [2] concerns Methicillin-resistant Staphylococcus aureus (MRSA) CCARM 3090. Format: cell-based. As to conditions: broth microdilution, 37 °C, 18–22 h. The protocol:
(§2) The bacterial strains employed in the experiment were Escherichia coli (KCTC 1682), Pseudomonas aeruginosa (KCTC 1637), Bacillus subtilis (KCTC 3068), Staphylococcus aureus (KCTC 1621), three methicillin-resistant Staphylococcus aureus (CCARM 3089, 3090 and 3095), two multidrug-resistant Pseudomonas aeruginosa (CCARM 2095 and 2109) and vancomycin-resistant Enterococcus faecium (ATCC 51559). The antimicrobial activities of polymers were determined by the broth microdilution method, and the procedures were used as previously reported. Briefly, bacteria grown to mid-logarithmic phase in LB broth were diluted to 2 × 10^6 CFU/mL in 1% peptone and added to serial two-fold dilutions of different polymers ranging from 1 to 64 μg/mL. The plates were incubated in a shaking incubator at 37 °C for 18–22 h. The minimum inhibitory concentration (MIC) was determined by confirming the absence of bacterial growth both visually and spectrophotometrically by OD600 readings taken by a microplate ELISA reader (Molecular Devices, Sunnyvale, CA, USA). All measurements were performed three times.
(In general: In broth dilution the organism is exposed to a series of concentrations in liquid medium.)

Series [3] relates to Multidrug-resistant Pseudomonas aeruginosa (MDRPA) CCARM 2109. The class given is cell-based. The note with it: broth microdilution, 37 °C, 18–22 h. The method, then:
as §2

Series [4] deals with Methicillin-resistant Staphylococcus aureus (MRSA) CCARM 3095. The class given is cell-based. The note with it: broth microdilution, 37 °C, 18–22 h. The method, then: as §2
Series [5] concerns Methicillin-resistant Staphylococcus aureus (MRSA) CCARM 3089. Format: cell-based. As to conditions: broth microdilution, 37 °C, 18–22 h. The method, then: as §2
Series [6] has as its system Multidrug-resistant Pseudomonas aeruginosa (MDRPA) CCARM 2095. Format: cell-based. The note with it: broth microdilution, 37 °C, 18–22 h. The method, then: as §2
Series [7] concerns HaCaT cells. Kind of series: Cytotoxicity, MTT assay. The note with it: 24 h, maximum tested concentration (20 µg). Format: cell-based. The method, then: page 6: Figure S2. Effect of TZP3 and TZP5 on β-hexosaminidase release in RBL-2H3 cells Cytotoxicity evaluation of TZP3 and TZP5 on HaCaT cells Figure S3: Cytotoxicity evaluation of TZP3 […] and TZP5 (b) on HaCaT cells. TZP3 and TZP5 were treated with HaCaT cells in various concentrations for 24 h followed by MTT assay, and absorbance was measured. Cell viability was calculated as the relative absorbance. […]
For orientation: Tetrazolium assays rely on reduction of a dye to a coloured formazan, in cell work by metabolically active cells.

In series [8] the test system is TGF-β, TNF-α, iNOS, COX-2 protein in dorsal tissue. As to the kind of experiment: DNCB-induced AD model, western blot of inflammatory mediators. Format: in vivo, BALB/c mice. As to conditions: versus AD mice. The protocol:
as §1
Frozen skins from the mice were homogenized in liquid nitrogen. For the western blot analysis, the tissues were lysed in a RIPA lysis buffer(Sigma) containing 1% protease inhibitor. The cell lysates were incubated on ice for 1 h and then the homogenates were centrifuged at 13000 rpm for 20 min at 4 °C. […] The antibody-specific proteins were visualized with enhanced chemiluminescence (ECL) detection reagent and quantified using the ImageJ software. […]
In general terms: A western blot detects proteins with antibodies after separation by electrophoresis.

Molecules are shown by their SMILES.

Regarding `NCCCN(CCCN)c1nc(Cl)nc(NCCNc2nc(NCCNc3nc(N)nc(NCCC(c4ccccc4)c4ccccc4)n3)nc(N(CCCN)CCCN)n2)n1` [TZP5], in series [1], the “decrease in both epidermal and dermal thickness” value is reported as “more than 50%”; the “infiltration of mast cells in the skin lesions” value is “significantly suppressed”. Besides, in series [2], the “MIC MRSA CCARM 3090” value was 4 [3] µg/mL. Besides, the “MIC MDRPA CCARM 2109” value in series [3] is 8 [6] µg/mL. In addition, in series [4], the “MIC MRSA CCARM 3095” value is 4 [3] µg/mL. Further, the “MIC MRSA CCARM 3089” value in series [5] was 4 [3] µg/mL. Further, the “MIC MDRPA CCARM 2095” value in series [6] was 8 [6] µg/mL. Moreover, the “cytotoxicity in HaCaT cells” value in series [7] is given as “didn’t show significant cytotoxicity”. The “protein expressions (TGF-β, TNF-α, iNOS, COX-2) in dorsal tissue” value in series [8] is listed as “significant decrease”.

Regarding `NCCCN(CCCN)c1nc(N)nc(NCCNc2nc(Cl)nc(N(Cc3ccccc3)Cc3ccccc3)n2)n1` [TZP3], in series [1], the “decrease in both epidermal and dermal thickness” value was “more than 50%”; the “infiltration of mast cells in the skin lesions” value is “significantly suppressed”. Moreover, the “MIC MRSA CCARM 3090” value in series [2] was 8 [13.5] µg/mL. Further, in series [3], the “MIC MDRPA CCARM 2109” value is 8 [13.5] µg/mL. Besides, the “MIC MRSA CCARM 3095” value in series [4] is 8 [13.5] µg/mL. The “MIC MRSA CCARM 3089” value in series [5] was 8 [13.5] µg/mL. Moreover, the “MIC MDRPA CCARM 2095” value in series [6] was 8 [13.5] µg/mL. Besides, in series [7], the “cytotoxicity in HaCaT cells” value was “didn’t show significant cytotoxicity”. The “protein expressions (TGF-β, TNF-α, iNOS, COX-2) in dorsal tissue” value in series [8] is “significant decrease”.

For the origin of these results see article PMC6805867, “Amphiphilic Triazine Polymer Derivatives as Antibacterial And Anti-atopic Agents in Mice Model” (Scientific Reports, 2019).
